In publication PMC6274539, “Photoactivatable Caged Prodrugs of VEGFR-2 Kinase Inhibitors” (Molecules, 2016):

Legend:
Assay in all cases: kinase profiling, radioactive filter binding assay
Type in all cases: biochemical
[1] = target: CHK1 (Homo sapiens, UniProt O14757); details: 0.1 µM compound, assay duplicates; read-out: residual activity of CHK1, mean percentage activity
Description: (§1) The used method was a radioactive filter binding assay using ^33P ATP, for details see references. The substances were dissolved in DMSO at tested concentration of 0.1 µM. The mean percentage residual kinase activity and standard deviations of assay duplicates were determined. Analyses were performed by the International Center for Kinase Profiling at the University of Dundee, UK.

[2] = target: CHK2 (Homo sapiens, UniProt O96017); details: 0.1 µM compound, assay duplicates; read-out: residual activity of CHK2, mean percentage activity
Description: as §1

[3] = target: CK1 (Homo sapiens, UniProt P48730); details: 0.1 µM compound, assay duplicates; read-out: residual activity of CK1, mean percentage activity
Description: as §1

[4] = target: CSK (Homo sapiens, UniProt P41240); details: 0.1 µM compound, assay duplicates; read-out: residual activity of CSK, mean percentage activity
Description: as §1

[5] = target: DYRK1A (Homo sapiens, UniProt Q13627); details: 0.1 µM compound, assay duplicates; read-out: residual activity of DYRK1A, mean percentage activity
Description: as §1

[6] = target: DYRK3 (Homo sapiens, UniProt O43781); details: 0.1 µM compound, assay duplicates; read-out: residual activity of DYRK3, mean percentage activity
Chain of DYRK3 (O43781 whole entry): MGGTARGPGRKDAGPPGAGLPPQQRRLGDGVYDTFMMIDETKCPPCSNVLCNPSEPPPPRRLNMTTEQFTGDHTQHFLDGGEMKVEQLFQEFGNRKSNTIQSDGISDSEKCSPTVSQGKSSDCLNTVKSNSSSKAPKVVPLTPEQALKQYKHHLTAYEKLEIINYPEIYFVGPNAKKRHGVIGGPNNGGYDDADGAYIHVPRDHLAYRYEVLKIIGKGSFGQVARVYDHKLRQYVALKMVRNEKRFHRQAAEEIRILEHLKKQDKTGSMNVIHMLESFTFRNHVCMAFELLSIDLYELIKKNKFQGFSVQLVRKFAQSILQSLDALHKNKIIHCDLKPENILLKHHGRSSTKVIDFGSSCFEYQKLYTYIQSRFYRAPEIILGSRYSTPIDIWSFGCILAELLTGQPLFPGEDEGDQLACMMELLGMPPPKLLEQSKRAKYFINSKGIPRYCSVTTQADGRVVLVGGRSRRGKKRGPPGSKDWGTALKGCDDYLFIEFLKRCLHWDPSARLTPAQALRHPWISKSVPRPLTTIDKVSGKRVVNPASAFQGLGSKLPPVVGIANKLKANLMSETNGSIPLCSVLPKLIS
Description: as §1

[7] = target: EPH A2 (Homo sapiens, UniProt P29317); details: 0.1 µM compound, assay duplicates; read-out: residual activity of EPH A2, mean percentage activity
Description: as §1

[8] = target: FGF-R1 (Homo sapiens, UniProt P11362); details: 0.1 µM compound, assay duplicates; read-out: residual activity of FGF-R1, mean percentage activity
Chain of FGF-R1 (P11362 22-822): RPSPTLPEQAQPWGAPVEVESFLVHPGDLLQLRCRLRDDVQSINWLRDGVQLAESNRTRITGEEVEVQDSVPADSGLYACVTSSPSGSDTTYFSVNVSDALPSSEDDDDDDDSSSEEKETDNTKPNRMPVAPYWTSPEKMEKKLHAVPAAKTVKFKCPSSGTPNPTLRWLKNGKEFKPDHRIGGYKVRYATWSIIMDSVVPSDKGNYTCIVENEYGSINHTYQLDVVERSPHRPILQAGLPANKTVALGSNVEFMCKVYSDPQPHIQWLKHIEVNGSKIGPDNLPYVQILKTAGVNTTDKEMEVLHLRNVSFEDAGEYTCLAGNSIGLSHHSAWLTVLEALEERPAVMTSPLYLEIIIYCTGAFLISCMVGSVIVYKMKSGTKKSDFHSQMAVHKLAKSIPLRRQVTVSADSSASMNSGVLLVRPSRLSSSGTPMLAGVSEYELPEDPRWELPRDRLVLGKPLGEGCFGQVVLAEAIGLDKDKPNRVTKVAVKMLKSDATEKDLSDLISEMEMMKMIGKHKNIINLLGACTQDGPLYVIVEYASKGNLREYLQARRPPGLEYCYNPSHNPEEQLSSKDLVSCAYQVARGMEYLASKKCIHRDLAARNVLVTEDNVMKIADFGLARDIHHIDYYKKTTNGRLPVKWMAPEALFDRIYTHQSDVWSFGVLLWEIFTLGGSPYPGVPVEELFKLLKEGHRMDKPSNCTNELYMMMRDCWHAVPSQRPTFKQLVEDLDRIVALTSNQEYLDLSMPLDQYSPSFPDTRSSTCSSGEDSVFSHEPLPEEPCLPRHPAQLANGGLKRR
Description: as §1

[9] = target: IKKb (Homo sapiens, UniProt O14920); details: 0.1 µM compound, assay duplicates; read-out: residual activity of IKKb, mean percentage activity
Description: as §1

[10] = target: IKKe (Homo sapiens, UniProt Q14164); details: 0.1 µM compound, assay duplicates; read-out: residual activity of IKKe, mean percentage activity
Chain of IKKe (Q14164 whole entry): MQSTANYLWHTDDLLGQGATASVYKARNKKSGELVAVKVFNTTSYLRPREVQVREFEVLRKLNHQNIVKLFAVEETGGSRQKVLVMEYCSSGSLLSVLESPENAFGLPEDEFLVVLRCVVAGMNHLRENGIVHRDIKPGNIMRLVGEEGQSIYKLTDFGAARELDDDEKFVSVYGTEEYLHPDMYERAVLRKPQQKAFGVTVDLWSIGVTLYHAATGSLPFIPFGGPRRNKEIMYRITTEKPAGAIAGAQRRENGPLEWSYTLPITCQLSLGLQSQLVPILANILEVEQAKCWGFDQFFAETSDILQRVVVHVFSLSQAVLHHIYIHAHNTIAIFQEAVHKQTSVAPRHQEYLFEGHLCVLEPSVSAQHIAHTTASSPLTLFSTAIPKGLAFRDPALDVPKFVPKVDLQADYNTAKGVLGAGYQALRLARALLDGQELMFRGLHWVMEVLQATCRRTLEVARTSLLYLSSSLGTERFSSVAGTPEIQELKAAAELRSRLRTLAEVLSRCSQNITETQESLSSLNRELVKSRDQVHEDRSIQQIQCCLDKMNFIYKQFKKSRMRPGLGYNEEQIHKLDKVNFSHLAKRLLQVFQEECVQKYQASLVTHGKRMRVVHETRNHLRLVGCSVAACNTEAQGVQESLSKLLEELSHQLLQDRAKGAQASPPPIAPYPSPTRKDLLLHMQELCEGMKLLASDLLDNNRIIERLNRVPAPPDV
Description: as §1

[11] = target: IRR (Homo sapiens, UniProt P14616); details: 0.1 µM compound, assay duplicates; read-out: residual activity of IRR, mean percentage activity
Description: as §1

[12] = target: MAPKAP-K2 (Homo sapiens, UniProt P49137); details: 0.1 µM compound, assay duplicates; read-out: residual activity of MAPKAP-K2, mean percentage activity
Description: as §1

[13] = target: MARK3 (Homo sapiens, UniProt P27448); details: 0.1 µM compound, assay duplicates; read-out: residual activity of MARK3, mean percentage activity
Chain of MARK3 (P27448 whole entry): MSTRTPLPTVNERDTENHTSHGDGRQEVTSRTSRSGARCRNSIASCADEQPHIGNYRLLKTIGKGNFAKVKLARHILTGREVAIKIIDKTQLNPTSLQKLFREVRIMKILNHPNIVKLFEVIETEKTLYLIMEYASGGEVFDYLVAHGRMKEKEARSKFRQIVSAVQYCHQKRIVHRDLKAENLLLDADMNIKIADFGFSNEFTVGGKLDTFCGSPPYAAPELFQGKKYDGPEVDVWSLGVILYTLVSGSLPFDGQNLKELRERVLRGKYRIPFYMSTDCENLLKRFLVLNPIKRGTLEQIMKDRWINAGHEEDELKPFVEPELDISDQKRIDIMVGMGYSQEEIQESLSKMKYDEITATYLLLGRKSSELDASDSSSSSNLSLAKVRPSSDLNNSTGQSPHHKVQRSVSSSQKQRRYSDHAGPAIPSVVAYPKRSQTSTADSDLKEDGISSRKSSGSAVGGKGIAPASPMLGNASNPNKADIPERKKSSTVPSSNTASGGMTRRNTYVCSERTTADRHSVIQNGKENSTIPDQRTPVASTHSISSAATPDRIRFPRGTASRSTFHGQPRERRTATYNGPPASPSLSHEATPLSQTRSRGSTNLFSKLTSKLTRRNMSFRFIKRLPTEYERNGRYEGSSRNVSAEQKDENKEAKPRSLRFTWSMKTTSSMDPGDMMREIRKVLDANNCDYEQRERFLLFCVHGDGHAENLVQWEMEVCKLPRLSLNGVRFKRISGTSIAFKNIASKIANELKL
Description: as §1

[14] = target: MELK (Homo sapiens, UniProt Q14680); details: 0.1 µM compound, assay duplicates; read-out: residual activity of MELK, mean percentage activity
Chain of MELK (Q14680 whole entry): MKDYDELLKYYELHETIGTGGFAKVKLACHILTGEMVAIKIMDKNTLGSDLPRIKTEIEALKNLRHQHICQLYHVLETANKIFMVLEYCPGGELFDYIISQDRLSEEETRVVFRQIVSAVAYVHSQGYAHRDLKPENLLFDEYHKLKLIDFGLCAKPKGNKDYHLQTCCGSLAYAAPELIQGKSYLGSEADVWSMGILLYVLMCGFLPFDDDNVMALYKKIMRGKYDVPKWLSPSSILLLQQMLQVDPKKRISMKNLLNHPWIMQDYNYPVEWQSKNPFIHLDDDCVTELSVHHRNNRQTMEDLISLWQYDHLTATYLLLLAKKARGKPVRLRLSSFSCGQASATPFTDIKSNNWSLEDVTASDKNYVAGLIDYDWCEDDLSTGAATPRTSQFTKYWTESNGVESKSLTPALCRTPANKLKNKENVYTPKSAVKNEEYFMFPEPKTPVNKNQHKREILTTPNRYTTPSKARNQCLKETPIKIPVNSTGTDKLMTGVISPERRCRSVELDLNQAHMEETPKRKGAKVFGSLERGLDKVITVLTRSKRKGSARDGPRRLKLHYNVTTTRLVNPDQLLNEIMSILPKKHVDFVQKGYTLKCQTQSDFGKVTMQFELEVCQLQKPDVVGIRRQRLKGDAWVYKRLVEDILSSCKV
Description: as §1

[15] = target: MNK2 (Homo sapiens, UniProt Q9HBH9); details: 0.1 µM compound, assay duplicates; read-out: residual activity of MNK2, mean percentage activity
Description: as §1

[16] = target: PAK4 (Homo sapiens, UniProt O96013); details: 0.1 µM compound, assay duplicates; read-out: residual activity of PAK4, mean percentage activity
Chain of PAK4 (O96013 whole entry): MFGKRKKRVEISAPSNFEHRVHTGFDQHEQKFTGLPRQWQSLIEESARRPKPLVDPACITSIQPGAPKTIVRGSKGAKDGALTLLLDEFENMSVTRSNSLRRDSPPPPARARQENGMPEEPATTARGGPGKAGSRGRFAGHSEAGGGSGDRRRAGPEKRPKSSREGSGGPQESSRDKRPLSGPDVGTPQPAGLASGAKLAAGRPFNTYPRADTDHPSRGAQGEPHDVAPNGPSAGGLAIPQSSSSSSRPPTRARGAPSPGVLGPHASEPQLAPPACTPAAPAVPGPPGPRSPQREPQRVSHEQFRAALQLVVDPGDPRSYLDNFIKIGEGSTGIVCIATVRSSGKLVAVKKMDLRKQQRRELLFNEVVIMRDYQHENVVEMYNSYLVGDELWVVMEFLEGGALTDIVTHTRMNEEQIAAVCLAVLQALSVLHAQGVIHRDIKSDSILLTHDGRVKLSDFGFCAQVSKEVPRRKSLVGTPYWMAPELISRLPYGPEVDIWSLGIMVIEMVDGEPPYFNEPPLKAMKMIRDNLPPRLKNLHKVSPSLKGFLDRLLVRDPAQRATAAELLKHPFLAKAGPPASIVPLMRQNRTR
Description: as §1

[17] = target: PAK6 (Homo sapiens, UniProt Q9NQU5); details: 0.1 µM compound, assay duplicates; read-out: residual activity of PAK6, mean percentage activity
Description: as §1

[18] = target: PDK1 (Homo sapiens, UniProt O15530); details: 0.1 µM compound, assay duplicates; read-out: residual activity of PDK1, mean percentage activity
Description: as §1

[19] = target: PIM1 (Homo sapiens, UniProt P11309); details: 0.1 µM compound, assay duplicates; read-out: residual activity of PIM1, mean percentage activity
Description: as §1

[20] = target: PKBa (Homo sapiens, UniProt P31749); details: 0.1 µM compound, assay duplicates; read-out: residual activity of PKBa, mean percentage activity
Description: as §1

[21] = target: PKCa (Homo sapiens, UniProt P17252); details: 0.1 µM compound, assay duplicates; read-out: residual activity of PKCa, mean percentage activity
Description: as §1

[22] = target: RSK2 (Homo sapiens, UniProt P51812); details: 0.1 µM compound, assay duplicates; read-out: residual activity of RSK2, mean percentage activity
Description: as §1

[23] = target: Src (Homo sapiens, UniProt P12931); details: 0.1 µM compound, assay duplicates; read-out: residual activity of Src, mean percentage activity
Description: as §1

[24] = target: TBK1 (DU12569) (Homo sapiens, UniProt Q9UHD2); details: 0.1 µM compound, assay duplicates; read-out: residual activity of TBK1 (DU12569), mean percentage activity
Description: as §1

[25] = target: TBK1 (Homo sapiens, UniProt Q9UHD2); details: 0.1 µM compound, assay duplicates; read-out: residual activity of TBK1, mean percentage activity
Description: as §1

[26] = target: p38a MAPK (Homo sapiens, UniProt Q16539); details: 0.1 µM compound, assay duplicates; read-out: residual activity of p38a MAPK, mean percentage activity
Description: as §1

SMILES	remaining activity at 0.1 µM [1] [%]	remaining activity at 0.1 µM [2] [%]	remaining activity at 0.1 µM [3] [%]	remaining activity at 0.1 µM [4] [%]	remaining activity at 0.1 µM [5] [%]	remaining activity at 0.1 µM [6] [%]	remaining activity at 0.1 µM [7] [%]	remaining activity at 0.1 µM [8] [%]	remaining activity at 0.1 µM [9] [%]	remaining activity at 0.1 µM [10] [%]	remaining activity at 0.1 µM [11] [%]	remaining activity at 0.1 µM [12] [%]	remaining activity at 0.1 µM [13] [%]	remaining activity at 0.1 µM [14] [%]	remaining activity at 0.1 µM [15] [%]	remaining activity at 0.1 µM [16] [%]	remaining activity at 0.1 µM [17] [%]	remaining activity at 0.1 µM [18] [%]	remaining activity at 0.1 µM [19] [%]	remaining activity at 0.1 µM [20] [%]	also measured
COc1cc(C2=C(c3c[nH]c4ccccc34)C(=O)NC2=O)cc(OC)c1OC [Compound 1, 3-(1H-Indol-3-yl)-4-(3,4,5-trimethoxyphenyl)-1H-pyrrole-2,5-dione]	72	64	86	138	73	85	104	69	102	80	58	94	90	74	90	75	97	68	14	66	remaining activity at 0.1 µM [21]: 113%; remaining activity at 0.1 µM [22]: 91%; remaining activity at 0.1 µM [23]: 81%; remaining activity at 0.1 µM [24]: 88%; remaining activity at 0.1 µM [25]: 87%; remaining activity at 0.1 µM [26]: 89%
COc1cc2c3c(c4c5ccccc5[nH]c4c2c(OC)c1OC)C(=O)NC3=O [Compound 3, 5,6,7-Trimethoxybenzo[a]pyrrolo[3,4-c]carbazole-1,3(2H,8H)-dione]	34	63	78	99	26	46	109	92	113	63	41	95	73	55	81	55	99	39	5	81	remaining activity at 0.1 µM [21]: 90%; remaining activity at 0.1 µM [22]: 62%; remaining activity at 0.1 µM [23]: 86%; remaining activity at 0.1 µM [24]: 73%; remaining activity at 0.1 µM [25]: 85%; remaining activity at 0.1 µM [26]: 78%
